Experimental data: ChEMBL document CHEMBL5661983, “The selective anaplastic lymphoma receptor tyrosine kinase inhibitor ASP3026 induces tumor regression and prolongs survival in non-small cell lung cancer model mice” (Mol Cancer Ther, 2014)
Activity calls are given as the source filed them. The rule behind the calls is not given here.

How the values were obtained:
NCI-H2228 [1] = test: Antitumor activity against human NCI-H2228 cells xenografted in NOD.CB17-Prkdcscid/J mouse assessed as reduction in tumor volume at 50 mg/kg, iv administered daily for 5 days; type: functional, organism-based; conditions: time 5.0 day
[2] = Toxicity in human NCI-H2228 cell xenografted NOD.CB17-Prkdcscid/J mouse assessed as body weight loss at 50 mg/kg, iv administered once daily for 5 days; type: organism-based; conditions: in vivo, 120 h, time 5 day
NCI-H2228 [3] = test: Antitumor activity against human NCI-H2228 cells xenografted in NOD.CB17-Prkdcscid/J mouse assessed as increase in tumor regression at 12 mg/kg, iv administered daily for 5 days; type: functional, organism-based; conditions: time 5.0 day

SMILES | Activity (NCI-H2228 [1]) | Activity [2] | Activity (NCI-H2228 [3])
Nc1nc2[nH]cc(CCc3ccc(C(=O)N[C@@H](CCC(=O)O)C(=O)O)cc3)c2c(=O)[nH]1 [PEMETREXED] | Active | Toxic | –
CC(=O)O[C@H]1C(=O)[C@@]2(C)[C@H]([C@H](OC(=O)c3ccccc3)[C@]3(O)C[C@H](OC(=O)[C@H](O)[C@@H](NC(=O)c4ccccc4)c4ccccc4)C(C)=C1C3(C)C)[C@]1(OC(C)=O)CO[C@@H]1C[C@@H]2O | – | – | Active
